Test results taken from US20240252488A1 (KOREA RESEARCH INSTITUTE OF CHEMICAL TECHNOLOGY, priority 2020, published 2024).

Key:
MLKL [1] = target: T1, MLKL (Homo sapiens, UniProt Q8NB16); experiment: MLKL degradation assay in HepG2 cell line (western blot); assay type: cell-based; design: endogenous in cells; host or cells: HepG2 or HaCaT; details: cell line not given; for Degradation assay (Degradation %) 1 μM: compound 1 μM; for Degradation assay (Degradation %) 10 μM: compound 10 μM
T1 sequence (Q8NB16 1-471): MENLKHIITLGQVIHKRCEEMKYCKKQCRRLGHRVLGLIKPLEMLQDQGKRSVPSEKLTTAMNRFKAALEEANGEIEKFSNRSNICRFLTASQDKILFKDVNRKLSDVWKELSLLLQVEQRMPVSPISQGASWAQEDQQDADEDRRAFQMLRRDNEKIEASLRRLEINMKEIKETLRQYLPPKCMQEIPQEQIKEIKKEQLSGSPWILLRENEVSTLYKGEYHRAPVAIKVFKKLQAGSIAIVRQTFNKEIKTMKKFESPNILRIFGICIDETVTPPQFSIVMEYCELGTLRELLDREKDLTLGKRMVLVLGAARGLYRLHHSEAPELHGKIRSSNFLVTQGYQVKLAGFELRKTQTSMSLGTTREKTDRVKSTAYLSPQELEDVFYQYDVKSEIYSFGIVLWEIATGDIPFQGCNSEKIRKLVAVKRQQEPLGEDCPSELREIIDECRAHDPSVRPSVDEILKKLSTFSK
Procedure, shortened: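 Cells seeded, next day medium swapped for compound-containing medium (final 1 or 10 μM) and incubated 20-24 h at 37 °C. Lysates in RIPA with protease/phosphatase inhibitors were protein-matched by BCA, run on SDS-PAGE and immunoblotted for MLKL.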

MLKL [2] = target: T1, MLKL; experiment: Measurement of binding affinity with MLKL receptor (competitive binding assay, Kd); design: made in house; host or cells: HEK 293 cell line (T7 phage in E. coli BL21-derived host is also described)
Procedure, shortened: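 Competitive displacement of MLKL, expressed in HEK 293 cells and DNA-tagged for qPCR, from immobilized ligand on biotin-blocked beads. Compounds were added from 111× DMSO stocks (final DMSO 0.9%). Kinase left in the eluates was quantified by qPCR to give Kd.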

FADD−/− Jurkat cells = experiment: Necroptosis inhibition assay, TNF-α-induced necroptosis (CellTiter-Glo 2.0); assay type: cell-based, human; details: TNF-α 15 ng/mL; for Necroptosis inhibition assay (Rescue %) 1 μM: compound 1 μM; for Necroptosis inhibition assay (Rescue %) 10 μM: compound 10 μM
Procedure, shortened: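 Luminescent ATP measurement gave viability, from which cytotoxicity and necroptosis inhibition rate were derived. Before that, cells (5.0×10^5 cells/mL) saw compound at 0.1, 1 or 10 μM final for 30 minutes at room temperature, then TNF-α (15 ng/mL final) for 20 to 24 hours at 37° C.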

SMILES | Degradation assay (Degradation %) 1 μM (MLKL [1]) | Degradation assay (Degradation %) 10 μM (MLKL [1]) | Kd (MLKL [2]) | Necroptosis inhibition assay (Rescue %) 1 μM (FADD−/− Jurkat cells; FADD−/− Jurkat cells) | Necroptosis inhibition assay (Rescue %) 10 μM (FADD−/− Jurkat cells; FADD−/− Jurkat cells) | Necroptosis inhibition assay (Rescue %) 1 μM (FADD−/− Jurkat cells) | Necroptosis inhibition assay (Rescue %) 10 μM (FADD−/− Jurkat cells)
Nc1ncc(-c2cnn(C3CCN(C(=O)CCC4CCN(C(=O)COc5ccc6c(c5)C(=O)N(C5CCC(=O)NC5=O)C6=O)CC4)CC3)c2)nc1C(=O)O[C@@H](C(=O)Nc1ccc(F)cc1)c1ccccc1 (stereo partly drawn) [TDH-416, (R)-2-((4-fluorophenyl)amino)-2-oxo-1-phenylethyl 3-amino-6-(1-(1-(3-(1-(2-((2-(2,6-dioxopiperidin-3-yl)-1,3-dioxoisoindolin-5-yl)oxy)acetyl)piperidin-4-yl)propanoyl)piperidin-4-yl)-1H-pyrazol-4-yl)pyrazine-2-carboxylate] | 93.24% | 93.04% | 2.4 nM | 52.88% | 43.06% | – | –
Nc1ncc(-c2cnn(C3CCN(CCOC4CCN(C(=O)CC5CCN(c6cccc7c6C(=O)N(C6CCC(=O)NC6=O)C7=O)CC5)CC4)CC3)c2)nc1C(=O)O[C@@H](C(=O)Nc1ccc(F)cc1)c1ccccc1 (stereo partly drawn) [TDH-371, (R)-2-((4-fluorophenyl)amino)-2-oxo-1-phenylethyl 3-amino-6-(1-(1-(2-((1-(2-(1-(2-(2,6-dioxopiperidin-3-yl)-1,3-dioxoisoindolin-4-yl)piperidin-4-yl)acetyl)piperidin-4-yl)oxy)ethyl)piperidin-4-yl)-1H-pyrazol-4-yl)pyrazine-2-carboxylate] | 82.38% | 83.26% | 3.7 nM | – | – | 35.76% | 25.74%
Nc1ncc(-c2cnn(C3CCN(CC4CN(C(=O)CNc5cccc6c5C(=O)N(C5CCC(=O)NC5=O)C6=O)CCO4)CC3)c2)nc1C(=O)OC(C(=O)Nc1ccc(F)cc1)c1ccccc1 (centres unmarked) [TDH-306, 2-((4-fluorophenyl)amino)-2-oxo-1-phenylethyl 3-amino-6-(1-(1-((4-((2-(2,6-dioxopiperidin-3-yl)-1,3-dioxoisoindolin-4-yl)glycyl)morpholin-2-yl)methyl)piperidin-4-yl)-1H-pyrazol-4-yl)pyrazine-2-carboxylate] | 62.87% | 45.31% | 5.4 nM | – | – | 34.35% | 43.09%
Nc1ncc(-c2cnn(C3CCN(CCOCCNc4ccc5c(c4)C(=O)N(C4CCC(=O)NC4=O)C5=O)CC3)c2)nc1C(=O)O[C@@H](C(=O)Nc1ccc(F)cc1)c1ccccc1 (stereo partly drawn) [TDH-131, (R)-2-((4-fluorophenyl)amino)-2-oxo-1-phenylethyl 3-amino-6-(1-(1-(2-(2-((2-(2,6-dioxopiperidin-3-yl)-1,3-dioxoisoindolin-5-yl)amino)ethoxy)ethyl)piperidin-4-yl)-1H-pyrazol-4-yl)pyrazine-2-carboxylate] | 51.13% | 47.86% | 3.9 nM | – | – | 24.56% | 0.96%
COc1ccc(C(=O)N2CCC(CN3CCC(CN4CCC(n5cc(-c6cnc(N)c(C(=O)O[C@@H](C(=O)Nc7ccc(F)cc7)c7ccccc7)n6)cn5)CC4)CC3)CC2)cc1N1CCC(=O)NC1=O [TDH-477, (R)-2-((4-fluorophenyl)amino)-2-oxo-1-phenylethyl 3-amino-6-(1-(1-((1-((1-(3-(2,4-dioxotetrahydropyrimidin-1(2H)-yl)-4-methoxybenzoyl)piperidin-4-yl)methyl)piperidin-4-yl)methyl)piperidin-4-yl)-1H-pyrazol-4-yl)pyrazine-2-carboxylate] | 92.48% | 90.67% | 0.26 nM | 62.38% | 21.83% | – | –
Nc1ncc(-c2cnn(C3CCN(CCOCCOCCOCCNC(=O)COc4ccc5c(c4)C(=O)N(C4CCC(=O)NC4=O)C5=O)CC3)c2)nc1C(=O)O[C@@H](C(=O)Nc1ccc(F)cc1)c1ccccc1 (stereo partly drawn) [TDH-166, (R)-2-((4-fluorophenyl)amino)-2-oxo-1-phenylethyl 3-amino-6-(1-(1-(1-((2-(2,6-dioxopiperidin-3-yl)-1,3-dioxoisoindolin-5-yl)oxy)-2-oxo-6,9,12-trioxa-3-azatetradecan-14-yl)piperidin-4-yl)-1H-pyrazol-4-yl)pyrazine-2-carboxylate] | 18.17% | 60.05% | 3.4 nM | – | – | 27.44% | 65.57%

The remaining compounds from weak to strong by Kd (MLKL [2]), led by results:

Degradation assay (Degradation %) 1 μM (MLKL [1]) | Degradation assay (Degradation %) 10 μM (MLKL [1]) | Kd (MLKL [2]) | SMILES | Necroptosis inhibition assay (Rescue %) 1 μM (FADD−/− Jurkat cells; FADD−/− Jurkat cells) | Necroptosis inhibition assay (Rescue %) 10 μM (FADD−/− Jurkat cells; FADD−/− Jurkat cells) | Necroptosis inhibition assay (Rescue %) 1 μM (FADD−/− Jurkat cells) | Necroptosis inhibition assay (Rescue %) 10 μM (FADD−/− Jurkat cells)
38.91% | 60.57% | 24 nM | Nc1ncc(-c2cnn(C3CCN(CC4CCN(C(=O)C5CCN(c6ccc7c(c6)C(=O)N(C6CCC(=O)NC6=O)C7=O)CC5)CC4)CC3)c2)nc1C(=O)O[C@@H](C(=O)Nc1ccc(F)cc1)c1ccccc1 (stereo partly drawn) [TDH-147, (R)-2-((4-fluorophenyl)amino)-2-oxo-1-phenylethyl 3-amino-6-(1-(1-((1-(1-(2-(2,6-dioxopiperidin-3-yl)-1,3-dioxoisoindolin-5-yl)piperidine-4-carbonyl)piperidin-4-yl)methyl)piperidin-4-yl)-1H-pyrazol-4-yl)pyrazine-2-carboxylate] | – | – | 84.3% | 45.37%
87.84% | 63.85% | 3.5 nM | Nc1ncc(-c2cnn(C3CCN(C(=O)CCC4CCN(C(=O)C5CCN(c6cccc7c6C(=O)N(C6CCC(=O)NC6=O)C7=O)CC5)CC4)CC3)c2)nc1C(=O)O[C@@H](C(=O)Nc1ccc(F)cc1)c1ccccc1 (stereo partly drawn) [TDH-417, (R)-2-((4-fluorophenyl)amino)-2-oxo-1-phenylethyl 3-amino-6-(1-(1-(3-(1-(1-(2-(2,6-dioxopiperidin-3-yl)-1,3-dioxoisoindolin-4-yl)piperidine-4-carbonyl)piperidin-4-yl)propanoyl)piperidin-4-yl)-1H-pyrazol-4-yl)pyrazine-2-carboxylate] | 24.41% | 14.37% | – | –
87.27% | 80.23% | 1.2 nM | Nc1ncc(-c2cnn(C3CCN(CCC4CCN(C(=O)CC5CCN(c6cccc7c6C(=O)N(C6CCC(=O)NC6=O)C7=O)CC5)CC4)CC3)c2)nc1C(=O)O[C@@H](C(=O)Nc1ccc(F)cc1)c1ccccc1 (stereo partly drawn) [TDH-366, (R)-2-((4-fluorophenyl)amino)-2-oxo-1-phenylethyl 3-amino-6-(1-(1-(2-(1-(2-(1-(2-(2,6-dioxopiperidin-3-yl)-1,3-dioxoisoindolin-4-yl)piperidin-4-yl)acetyl)piperidin-4-yl)ethyl)piperidin-4-yl)-1H-pyrazol-4-yl)pyrazine-2-carboxylate] | – | – | 45.56% | 22.39%
84.12% | 72.45% | 0.53 nM | Nc1ncc(-c2cnn(C3CCN(CCCN4CCN(C(=O)c5cccc(C(=O)NC6CCC(=O)NC6=O)c5)CC4)CC3)c2)nc1C(=O)O[C@@H](C(=O)Nc1ccc(F)cc1)c1ccccc1 (stereo partly drawn) [TDH-542, (R)-2-((4-fluorophenyl)amino)-2-oxo-1-phenylethyl 3-amino-6-(1-(1-(3-(4-(3-((2,6-dioxopiperidin-3-yl)carbamoyl)benzoyl)piperazin-1-yl)propyl)piperidin-4-yl)-1H-pyrazol-4-yl)pyrazine-2-carboxylate] | 24.80% | 29.40% | – | –
